Results reported in EP0343268A1, “Pharmaceutical composition and process for preparing the same” (BIOGAL GYOGYSZERGYAR, priority 1988, dated 1989).

Assays:
[1] = test system: pathogenic microorganisms occurring in the discharges of patients suffering from chronic otitis (otitis media chronica); assay: Treatment of ear discharges by antibacterial agents (sensitivity of the pathogens); type: cell-based
Description: In the Department for Qtorhinolaryngology of the Medical University of Debrecen, adult and child patients were examined to identify the types of pathogenic microorganisms occurring in the discharges of patients suffering from chronic otitis (otitis media chronica); the discharges of 510 patients were analyzed for the bacterial infection.

[2] = test system: chronic mesotympanic otitis; assay: Single-ingredient treatment of patients with chronic mesotympanic otitis; type: in vivo; conditions: 1% solution
Description: (§1) Several compositions according to the invention were also studied with omitting one active ingredient of the composition in order to support the progressive character of the multi-active-component type composition according to the invention. These experiments led to the following results.

[3] = test system: external otitis; assay: Single-ingredient treatment of patients with external otitis; type: in vivo; conditions: 1% solution
Description: as §1

[4] = in the presence of sulfhydryl-containing compounds, particularly acetylcysteine; cited from earlier work
[5] = In vitro mucolytic effect on ear discharges
[6] = cited from earlier work
[7] = test system: several gram-positive and gram-negative bacteria such as Pseudomonas aeruginosa; conditions: in vitro conditions; cited from earlier work
[8] = Single-ingredient treatment of patients (steroid alone; sulfhydryl compound solution alone); type: in vivo; conditions: aqueous solutions (pH 7.0±0.2) of 3 to 19%, preferably 5 to 15%
Description: as §1
An objective improvement was observed only in those cases involving large eardrum defects, strong hyperaemia and significant mucous membrane hypertrophy of the tympanic cavity as well as in the cases of external eczematous otitis (otitis externa ekzematosa).
The dilution of the discharge was not observed during the use,however, the amount of the discharge was somewhat reduced in spite of the decrease of its viscosity. The discharge, which was coherent and mucous in character, rather took the form of a precipitate under effect of the treatment by an acetylcysteine solution.

[9] = cited from earlier work; remark: listed apart in the source
[10] = cited from earlier work; remark: listed apart in the source
[11] = number of cases, total number of the examinations 510

With Penicillin the “A = therapeutically active (sensitive)” value [1, 11] was 67, the “M = moderately active” value [1, 11] was 22 and the “R = inactive (resistant)” value [1, 11] was 218. The “Act. = activity %” value ([1]; share of examined cases moderately active or active) was 29.4%.
For `NC[C@H]1O[C@H](O[C@H]2[C@H](O)[C@@H](O[C@H]3O[C@H](CO)[C@@H](O)[C@H](N)[C@H]3O)[C@H](N)C[C@@H]2N)[C@H](N)C[C@@H]1O` [Tobramycin], the “substantial improvement of the pathological processes” value [2] is listed as “about 60 % of patients”, the “substantial improvement of the pathological processes” value [3] is listed as ≤ 40% and the “absorption from the stomach” value [4] is listed as “not disadvantageously influenced”.
With `N[C@@H](CSCC(=O)O)C(=O)O` [carbocysteine] the mucolytic effect [5] was “a mucolytic effect can also be shown”.
In the case of `CC(C)(CO)[C@@H](O)C(=O)NCCC(=O)NCCS` [pantetheine], the mucolytic effect [5] is reported as “a mucolytic effect can also be shown”.
With `N[C@@H](CCC(=O)N[C@@H](CS)C(=O)NCC(=O)O)C(=O)O` [glutathione] the mucolytic effect [5] was “a mucolytic effect can also be shown”.
For `CC1(C)S[C@@H]2[C@H](NC(=O)[C@H](N)c3ccc(O)cc3)C(=O)N2[C@H]1C(=O)O` [amoxicillin], the “absorption from the stomach” value [4] is given as “not disadvantageously influenced”.
In the case of `O=C(O)C(S)C(S)C(=O)O` (stereo not shown) [dimercaptosuccinate], the mucolytic effect [5] is reported as “a mucolytic effect can also be shown”.
In the case of `O[C@H](CS)[C@@H](O)CS` [dithioerythritol], the mucolytic effect [5] is reported as “a mucolytic effect can also be shown”.
In the case of `CC[C@H]1OC(=O)[C@H](C)[C@@H](O[C@H]2C[C@@](C)(OC)[C@@H](O)[C@H](C)O2)[C@H](C)[C@@H](O[C@@H]2O[C@H](C)C[C@H](N(C)C)[C@H]2O)[C@](C)(O)C[C@@H](C)C(=O)[C@H](C)[C@@H](O)[C@]1(C)O` [Erythromycin], the “absorption from the stomach” value [4] is listed as “not disadvantageously influenced”.
In the case of `CC(=O)N[C@@H](CS)C(=O)O` [acetylcysteine, N-acetyl-L-cysteine], the LD₅₀ in dogs [6] is given as 1000 mg/kg of body-weight, the “effect with several antibiotics” value [7] is given as “synergistic effect” and the inflammatory symptomes [8] is given as “moderated”. For the same compound, the “viscosity of the discharge” value [8] was “advantageously influenced”, the LD₅₀ in mice [9] was 3000 mg/kg of body-weight and the LD₅₀ in rats [10] was 6000 mg/kg of body-weight.
For Neomycin, the “absorption from the stomach” value [4] is listed as “not disadvantageously influenced”.
For `C[C@H]1c2cccc(O)c2C(O)=C2C(=O)[C@]3(O)C(O)=C(C(N)=O)C(=O)[C@@H](N(C)C)[C@@H]3[C@@H](O)[C@@H]21` [doxycyclin], the “absorption from the stomach” value [4] is listed as “not disadvantageously influenced”.
